# Tests used:
# Test in all cases: in vitro antibacterial evaluation, MIC by broth dilution
# Type in all cases: cell-based
# [1] = system: Streptococcus sp.
# In short: (§1)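 MIC = lowest antibiotic concentration preventing visible growth; inoculum 5×10^5 CFU/mL; drug range 64-0.06 μg/mL; Muller-Hinton II […]; NCCLS M7-A2 guidance.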
# [2] = system: Enterococcus sp.
# In short: as §1
# [3] = system: Staphylococcus sp.; conditions: broth dilution, 18 hours at 35° C.; for MIC Staphylococcus aureus (ATCC 29213): strain ATCC 29213; for MIC Staphylococcus aureus (GC 1131): strain GC 1131; for MIC Staphylococcus aureus (GC 3051): strain GC 3051; for MIC Staphylococcus aureus (GC 3053): strain GC 3053; for MIC Staphylococcus aureus (GC 4541): strain GC 4541; for MIC Staphylococcus aureus (GC 4542): strain GC 4542; for MIC Staphylococcus aureus (GC 4544): strain GC 4544; for MIC Staphylococcus aureus (GC 4545): strain GC 4545
# In short: as §1
# [4] = system: Escherichia coli; conditions: 18 hours at 35° C.
# In short: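 Broth dilution MIC per NCCLS M7-A2 in Mueller-Hinton II medium, inoculum 5×10^5 CFU/mL, antibiotic range 64-0.06 μg/mL. MIC taken as lowest concentration inhibiting growth.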
# [5] = broth dilution, 18 hours at 35° C.
structure (smiles),measurement,setting,value
CCCCCCN=C1NCC(C(O)C2NC(=O)C(C(O)C3CNC(=N)N3)NC(=O)C(Cc3ccc(OC4OC(CO)C(OC5OC6COC7(OC6C(O)C5O)C5CC6CC(C5)CC7C6)C(O)C4O)cc3)NC(=O)C(C(C)c3ccccc3)NC(=O)CNC(=O)C(CO)NC2=O)N1C1OC(CO)C(O)C(O)C1O (stereo not shown) [Example 84],MIC Streptococcus agalactiae (GC 4564),[1]; [5],1 µg/mL
same,MIC Streptococcus pneumoniae (ATCC 6301),[1]; [5],1 µg/mL
same,MIC Streptococcus pneumoniae (GC 1894),[1]; [5],0.12 µg/mL
same,MIC Streptococcus pneumoniae (GC 4565),[1]; [5],1 µg/mL
same,MIC Streptococcus pyogenes (GC 4563),[1]; [5],0.5 µg/mL
same,MIC Streptococcus pneumoniae (ATCC 6301),"[1]; broth dilution, 18 hours at 35° C.; strain ATCC 6301",1 µg/mL
same,MIC Streptococcus pneumoniae (GC 1894),"[1]; broth dilution, 18 hours at 35° C.; strain GC 1894",0.12 µg/mL
same,MIC Streptococcus pyogenes (GC 4563),"[1]; broth dilution, 18 hours at 35° C.; strain GC 4563",0.5 µg/mL
same,MIC Streptococcus agalactiae (GC 4564),"[1]; broth dilution, 18 hours at 35° C.; strain GC 4564",1 µg/mL
same,MIC Streptococcus pneumoniae (GC 4565),"[1]; broth dilution, 18 hours at 35° C.; strain GC 4565",1 µg/mL
same,MIC Enterococcus avium (GC 4558),"[2]; Enterococcus avium (GC 4558); broth dilution, 18 hours at 35° C.",8 µg/mL
same,MIC Enterococcus faecalis (ATCC 29212),"[2]; Enterococcus faecalis (ATCC 29212); broth dilution, 18 hours at 35° C.",8 µg/mL
same,MIC Enterococcus faecalis (GC 4552),"[2]; Enterococcus faecalis (GC 4552); broth dilution, 18 hours at 35° C.",8 µg/mL
same,MIC Enterococcus faecalis (GC 4553),"[2]; Enterococcus faecalis (GC 4553); broth dilution, 18 hours at 35° C.",8 µg/mL
same,MIC Enterococcus faecalis (GC 4554),"[2]; Enterococcus faecalis (GC 4554); broth dilution, 18 hours at 35° C.",16 µg/mL
same,MIC Enterococcus faecalis (GC 6189),"[2]; Enterococcus faecalis (GC 6189); broth dilution, 18 hours at 35° C.",8 µg/mL
same,MIC Enterococcus faecium (GC 2243),"[2]; Enterococcus faecium (GC 2243); broth dilution, 18 hours at 35° C.",4 µg/mL
same,MIC Enterococcus faecium (GC 4556),"[2]; Enterococcus faecium (GC 4556); broth dilution, 18 hours at 35° C.",8 µg/mL
same,MIC Enterococcus faecium (GC 4557),"[2]; Enterococcus faecium (GC 4557); broth dilution, 18 hours at 35° C.",1 µg/mL
same,MIC Enterococcus avium (GC 4558),[2]; [5],8 µg/mL
same,MIC Enterococcus faecalis (ATCC 29212),[2]; [5],8 µg/mL
same,MIC Enterococcus faecalis (GC 2242),[2]; [5],8 µg/mL
same,MIC Enterococcus faecalis (GC 2691),[2]; [5],8 µg/mL
same,MIC Enterococcus faecalis (GC 3059),[2]; [5],8 µg/mL
same,MIC Enterococcus faecalis (GC 4552),[2]; [5],8 µg/mL
same,MIC Enterococcus faecalis (GC 4553),[2]; [5],8 µg/mL
same,MIC Enterococcus faecalis (GC 4554),[2]; [5],16 µg/mL
same,MIC Enterococcus faecalis (GC 6189),[2]; [5],8 µg/mL
same,MIC Enterococcus faecium (GC 2243),[2]; [5],4 µg/mL
same,MIC Enterococcus faecium (GC 4556),[2]; [5],8 µg/mL
same,MIC Enterococcus faecium (GC 4557),[2]; [5],1 µg/mL
same,MIC Enterococcus faecalis (GC 2242),"[2]; broth dilution, 18 hours at 35° C.; strain GC 2242",8 µg/mL
same,MIC Enterococcus faecalis (GC 2691),"[2]; broth dilution, 18 hours at 35° C.; strain GC 2691",8 µg/mL
same,MIC Enterococcus faecalis (GC 3059),"[2]; broth dilution, 18 hours at 35° C.; strain GC 3059",8 µg/mL
same,MIC Coagulase Negative Staphylococcus (GC 4547),[3],4 µg/mL
same,MIC Coagulase Negative Staphylococcus (GC 4548),[3],4 µg/mL
same,MIC Coagulase Negative Staphylococcus (GC 4549),[3],4 µg/mL
same,MIC Coagulase Negative Staphylococcus (GC 4551),[3],4 µg/mL
same,MIC Coagulase Negative Staphylococcus (GC 6257),[3],2 µg/mL
same,MIC Staphylococcus aureus-SMITH (GC 4543),[3],4 µg/mL
same,MIC Staphylococcus haemolyticus (GC 4546),[3],4 µg/mL
same,MIC Staphylococcus aureus (ATCC 29213),[3],8 µg/mL
same,MIC Staphylococcus aureus (GC 1131),[3],8 µg/mL
same,MIC Staphylococcus aureus (GC 3051),[3],8 µg/mL
same,MIC Staphylococcus aureus (GC 3053),[3],8 µg/mL
same,MIC Staphylococcus aureus (GC 4541),[3],4 µg/mL
same,MIC Staphylococcus aureus (GC 4542),[3],8 µg/mL
same,MIC Staphylococcus aureus-SMITH (GC 4543),[3]; strain GC 4543,4 µg/mL
same,MIC Staphylococcus aureus (GC 4544),[3],8 µg/mL
same,MIC Staphylococcus aureus (GC 4545),[3],8 µg/mL
same,MIC Staphylococcus haemolyticus (GC 4546),[3]; strain GC 4546,4 µg/mL
same,MIC Coagulase Negative Staphylococcus (GC 4547),[3]; strain GC 4547,4 µg/mL
same,MIC Coagulase Negative Staphylococcus (GC 4548),[3]; strain GC 4548,4 µg/mL
same,MIC Coagulase Negative Staphylococcus (GC 4549),[3]; strain GC 4549,4 µg/mL
same,MIC Coagulase Negative Staphylococcus (GC 4551),[3]; strain GC 4551,4 µg/mL
same,MIC Coagulase Negative Staphylococcus (GC 6257),[3]; strain GC 6257,2 µg/mL
same,MIC Escherichia coli (ATCC 25922),[4],>64 µg/mL
same,MIC Escherichia coli (GC 4559),[4],64 µg/mL
same,MIC Escherichia coli (GC 4560),[4],4 µg/mL
"CCCCCCC(=O)Nc1cc(CC2NC(=O)C(C(C)c3ccccc3)NC(=O)CNC(=O)C(CO)NC(=O)C(C(O)C3CNC(=N)N3C3OC(CO)C(O)C(O)C3O)NC(=O)C(C(O)C3CNC(=N)N3)NC2=O)ccc1O (stereo not drawn) [Example 16, Cyclo[glycyl-β-methylphenylalanyl-3-(heptanamido)tyrosyl-3-(2-iminoimidazolidin-4-yl)seryl-3-(3-hexopyranosyl-2-iminoimidazolidin-4-yl)serylseryl]]",MIC Streptococcus pneumoniae (ATCC 6301),"[1]; strain ATCC 6301; broth dilution, 18 hours at 35° C.",128 µg/mL
same,MIC Streptococcus pneumoniae (GC 1894),"[1]; strain GC 1894; broth dilution, 18 hours at 35° C.",64 µg/mL
same,MIC Streptococcus pyogenes (GC 4563),"[1]; strain GC 4563; broth dilution, 18 hours at 35° C.",16 µg/mL
same,MIC Streptococcus agalactiae (GC 4564),"[1]; strain GC 4564; broth dilution, 18 hours at 35° C.",64 µg/mL
same,MIC Streptococcus pneumoniae (GC 4565),"[1]; strain GC 4565; broth dilution, 18 hours at 35° C.",128 µg/mL
same,MIC Enterococcus faecalis (ATCC 29212),"[2]; strain ATCC 29212; broth dilution, 18 hours at 35° C.",>128 µg/mL
same,MIC Enterococcus faecalis (GC 2242),"[2]; strain GC 2242; broth dilution, 18 hours at 35° C.",>128 µg/mL
same,MIC Enterococcus faecium (GC 2243),"[2]; strain GC 2243; broth dilution, 18 hours at 35° C.",128 µg/mL
same,MIC Enterococcus faecalis (GC 2691),"[2]; strain GC 2691; broth dilution, 18 hours at 35° C.",>128 µg/mL
same,MIC Enterococcus faecalis (GC 3059),"[2]; strain GC 3059; broth dilution, 18 hours at 35° C.",>128 µg/mL
same,MIC Enterococcus faecalis (GC 4552),"[2]; strain GC 4552; broth dilution, 18 hours at 35° C.",>128 µg/mL
same,MIC Enterococcus faecalis (GC 4553),"[2]; strain GC 4553; broth dilution, 18 hours at 35° C.",64 µg/mL
same,MIC Enterococcus faecalis (GC 4554),"[2]; strain GC 4554; broth dilution, 18 hours at 35° C.",>128 µg/mL
same,MIC Enterococcus faecium (GC 4556),"[2]; strain GC 4556; broth dilution, 18 hours at 35° C.",>128 µg/mL
same,MIC Enterococcus faecium (GC 4557),"[2]; strain GC 4557; broth dilution, 18 hours at 35° C.",16 µg/mL
same,MIC Enterococcus avium (GC 4558),"[2]; strain GC 4558; broth dilution, 18 hours at 35° C.",128 µg/mL
same,MIC Enterococcus faecalis (GC 6189),"[2]; strain GC 6189; broth dilution, 18 hours at 35° C.",>128 µg/mL
same,MIC Staphylococcus aureus (ATCC 29213),[3],128 µg/mL
same,MIC Staphylococcus aureus (GC 1131),[3],128 µg/mL
same,MIC Staphylococcus aureus (GC 3051),[3],128 µg/mL
same,MIC Staphylococcus aureus (GC 3053),[3],128 µg/mL
same,MIC Staphylococcus aureus (GC 4541),[3],64 µg/mL
same,MIC Staphylococcus aureus (GC 4542),[3],128 µg/mL
same,MIC Staphylococcus aureus-SMITH (GC 4543),[3]; strain GC 4543,64 µg/mL
same,MIC Staphylococcus aureus (GC 4544),[3],128 µg/mL
same,MIC Staphylococcus aureus (GC 4545),[3],32 µg/mL
same,MIC Staphylococcus haemolyticus (GC 4546),[3]; strain GC 4546,8 µg/mL
same,MIC Coagulase Negative Staphylococcus (GC 4547),[3]; strain GC 4547,16 µg/mL
same,MIC Coagulase Negative Staphylococcus (GC 4548),[3]; strain GC 4548,32 µg/mL
same,MIC Coagulase Negative Staphylococcus (GC 4549),[3]; strain GC 4549,4 µg/mL
same,MIC Coagulase Negative Staphylococcus (GC 4551),[3]; strain GC 4551,32 µg/mL
same,MIC Coagulase Negative Staphylococcus (GC 6257),[3]; strain GC 6257,8 µg/mL
same,MIC Escherichia coli (ATCC 25922),"[4]; strain ATCC 25922, broth dilution",32 µg/mL
same,MIC Escherichia coli (GC 4559),"[4]; strain GC 4559, broth dilution",32 µg/mL
same,MIC Escherichia coli (GC 4560),"[4]; strain GC 4560, broth dilution",8 µg/mL

# — US6914045B2, “Glycopeptide antibiotics” (Wyeth Holdings Corporation, priority 2001, dated 2005)
